In the assay the target is T1, Recombinant human EP300 containing the bromodomain (EP300-BD (1040-1161)) (Homo sapiens, UniProt Q09472).
T1 construct: Recombinant human EP300 bromodomain (EP300-BD (1040-1161)); made in house; host or cells: E. coli BL21-CodonPlus (DE3), modified pET vector
T1 sequence (Q09472 1040-1161): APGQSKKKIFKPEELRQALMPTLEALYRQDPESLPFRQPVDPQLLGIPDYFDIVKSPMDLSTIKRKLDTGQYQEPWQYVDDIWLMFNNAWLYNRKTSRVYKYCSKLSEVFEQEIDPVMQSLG
Put plainly: EP300 Alphascreen binding assay. The essentials:
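Displacement of a biotinylated acetyl-K56 histone H3 peptide from the N-His bromodomain construct (1040-1161) measured by AlphaScreen proximity, beads at 7.5 μg/ml final, read 60 min after addition. Protein, peptide and compound first incubated 1 h at room temperature, pH 7.5 HEPES buffer; IC50 by four-parameter logistic fit.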
On the technique in general: In Alpha technology, singlet oxygen from a donor bead excites a nearby acceptor bead.
What is called IC50 is the concentration needed to halve the response being measured. Take `Cc1noc(C)c1-c1cnc2c(c1)c(-c1ccc(C(=O)O)cc1)cn2C(C)c1ncccn1` (centres unmarked) [P-0013, 4-(5-(3,5-dimethylisoxazol-4-yl)-1-(1-(pyrimidin-2-yl)ethyl)-1H-pyrrolo[2,3-b]pyridin-3-yl)benzoic acid]: the IC50 lay in the range of 0.1 to 1000 nM.

On to `Cc1noc(C)c1-c1cnc2c(c1)c(-c1ccc(C(=O)O)cc1)cn2C(C)c1ccc(F)cn1` (centres unmarked) [P-0014, 4-(5-(3,5-dimethylisoxazol-4-yl)-1-(1-(5-fluoropyridin-2-yl)ethyl)-1H-pyrrolo[2,3-b]pyridin-3-yl)benzoic acid], for which the IC50 was 0.1 to 1000 nM.

Take `Cc1noc(C)c1-c1cnc2c(c1)c(-c1cccc(C(=O)O)c1)cn2C(c1ccccn1)C1CCCC1` (centres unmarked) [P-0015, 3-(1-(cyclopentyl(pyridin-2-yl)methyl)-5-(3,5-dimethylisoxazol-4-yl)-1H-pyrrolo[2,3-b]pyridin-3-yl)benzoic acid]: the IC50 fell in the range of 0.1 to 1000 nM.

Consider `Cc1noc(C)c1-c1cnc2c(c1)c(-c1ccc(F)c(C(=O)O)c1)cn2C(c1ccccn1)C1CCCC1` (centres unmarked) [P-0016, 5-(1-(cyclopentyl(pyridin-2-yl)methyl)-5-(3,5-dimethylisoxazol-4-yl)-1H-pyrrolo[2,3-b]pyridin-3-yl)-2-fluorobenzoic acid], for which the IC50 lay within 0.1 to 1000 nM.

With `Cc1noc(C)c1-c1cnc2c(c1)c(-c1ccnc(C(=O)O)c1)cn2C(c1ccccn1)C1CCCC1` (centres unmarked) [P-0017, 4-(1-(cyclopentyl(pyridin-2-yl)methyl)-5-(3,5-dimethylisoxazol-4-yl)-1H-pyrrolo[2,3-b]pyridin-3-yl)picolinic acid], the IC50 was in the range of 0.1 to 1000 nM.

With `Cc1noc(C)c1-c1cnc2c(c1)c(-c1cccc(CC(=O)O)c1)cn2C(c1ccccn1)C1CCCC1` (centres unmarked) [P-0018, 2-(3-(1-(cyclopentyl(pyridin-2-yl)methyl)-5-(3,5-dimethylisoxazol-4-yl)-1H-pyrrolo[2,3-b]pyridin-3-yl)phenyl)acetic acid], the IC50 lay within 0.1 to 1000 nM.

For `Cc1noc(C)c1-c1cnc2c(c1)c(-c1ccncc1)cn2C(c1ccccn1)C1CCCC1` (centres unmarked) [P-0019, 4-(1-(cyclopentyl(pyridin-2-yl)methyl)-3-(pyridin-4-yl)-1H-pyrrolo[2,3-b]pyridin-5-yl)-3,5-dimethylisoxazole], the IC50 fell in the range of 1000 to 8000 nM.

For `Cc1noc(C)c1-c1cnc2c(c1)c(-c1ccc(C(=O)O)cc1OC1CC1)cn2[C@@H](C)c1ccccn1` [P-0170, (S)-3-cyclopropoxy-4-(5-(3,5-dimethylisoxazol-4-yl)-1-(1-(pyridin-2-yl)ethyl)-1H-pyrrolo[2,3-b]pyridin-3-yl)benzoic acid], the IC50 was 0.1 to 1000 nM.

On to `Cc1noc(C)c1-c1cnc2c(-c3ccc(C(=O)O)cc3C#CC3CC3)cn([C@@H](C)c3ccccn3)c2c1` [P-0171, (S)-3-(cyclopropylethynyl)-4-(6-(3,5-dimethylisoxazol-4-yl)-1-(1-(pyridin-2-yl)ethyl)-1H-pyrrolo[3,2-b]pyridin-3-yl)benzoic acid], for which the IC50 lay in the range of 0.1 to 1000 nM.

Consider `COc1ccc(C(=O)O)cc1-c1cn(C(C)(c2ccccn2)c2ccccn2)c2cc(-c3c(C)noc3C)cnc12` [P-0172, 3-(1-(1,1-di(pyridin-2-yl)ethyl)-6-(3,5-dimethylisoxazol-4-yl)-1H-pyrrolo[3,2-b]pyridin-3-yl)-4-methoxybenzoic acid], for which the IC50 was 1000 to 8000 nM.

For `CCOc1cc(C(=O)O)cc(OCC)c1-n1cc(-c2cccnc2)c2ncc(-c3c(C)noc3C)cc21` [P-0173, 4-(6-(3,5-dimethylisoxazol-4-yl)-3-(pyridin-3-yl)-1H-pyrrolo[3,2-b]pyridin-1-yl)-3,5-diethoxybenzoic acid], the IC50 lay in the range of 0.1 to 1000 nM.

Take `CCOc1cc(C(=O)O)cc(OC(C)C)c1-c1cn([C@@H](C)c2ccccn2)c2ncc(-c3c(C)noc3C)cc12` [P-0174, (S)-4-(5-(3,5-dimethylisoxazol-4-yl)-1-(1-(pyridin-2-yl)ethyl)-1H-pyrrolo[2,3-b]pyridin-3-yl)-3-ethoxy-5-isopropoxybenzoic acid]: the IC50 lay in the range of 0.1 to 1000 nM.

With `Cc1noc(C)c1-c1cnc2c(c1)c(-c1ccc(C(=O)O)cc1OC(F)(F)F)cn2-c1cccnc1` [P-0175, 4-(5-(3,5-dimethylisoxazol-4-yl)-1-(pyridin-3-yl)-1H-pyrrolo[2,3-b]pyridin-3-yl)-3-(trifluoromethoxy)benzoic acid], the IC50 is 0.1 to 1000 nM.

For the compound `COc1ccncc1-n1cc(-c2ccc(C(=O)O)cc2OC(F)(F)F)c2cc(-c3c(C)noc3C)cnc21` [P-0176, 4-(5-(3,5-dimethylisoxazol-4-yl)-1-(4-methoxypyridin-3-yl)-1H-pyrrolo[2,3-b]pyridin-3-yl)-3-(trifluoromethoxy)benzoic acid], the IC50 was 0.1 to 1000 nM.

As for `Cc1noc(C)c1-c1cnc2c(c1)c(-c1ccc(C(=O)O)cc1OC(F)(F)F)cn2-c1cnccc1Cl` [P-0177, 4-(1-(4-chloropyridin-3-yl)-5-(3,5-dimethylisoxazol-4-yl)-1H-pyrrolo[2,3-b]pyridin-3-yl)-3-(trifluoromethoxy)benzoic acid], the IC50 was 0.1 to 1000 nM.

With `Cc1noc(C)c1-c1cnc2c(c1)c(-c1ccc(C(=O)O)cc1C#CC1CC1)cn2[C@@H](C)c1ccccn1` [P-0178, (S)-3-(cyclopropylethynyl)-4-(5-(3,5-dimethylisoxazol-4-yl)-1-(1-(pyridin-2-yl)ethyl)-1H-pyrrolo[2,3-b]pyridin-3-yl)benzoic acid], the IC50 fell in the range of 1000 to 8000 nM.

Take `Cc1noc(C)c1-c1cnc2c(c1)c(-c1ccc(C(=O)O)cc1OC1CCC1)cn2[C@@H](C)c1ccccn1` [P-0179, (S)-3-cyclobutoxy-4-(5-(3,5-dimethylisoxazol-4-yl)-1-(1-(pyridin-2-yl)ethyl)-1H-pyrrolo[2,3-b]pyridin-3-yl)benzoic acid]: the IC50 was in the range of 0.1 to 1000 nM.

For `Cc1noc(C)c1-c1cnc2c(c1)c(-c1ccc(C(=O)O)cc1OC(F)(F)F)cn2-c1ncccc1C(F)(F)F` [P-0180, 4-(5-(3,5-dimethylisoxazol-4-yl)-1-(3-(trifluoromethyl)pyridin-2-yl)-1H-pyrrolo[2,3-b]pyridin-3-yl)-3-(trifluoromethoxy)benzoic acid], the IC50 fell in the range of 0.1 to 1000 nM.

For the compound `Cc1noc(C)c1-c1cnc2c(c1)c(-c1ccc(C(=O)O)cc1C1CC1)cn2[C@@H](C)c1ccccn1` [P-0181, (S)-3-cyclopropyl-4-(5-(3,5-dimethylisoxazol-4-yl)-1-(1-(pyridin-2-yl)ethyl)-1H-pyrrolo[2,3-b]pyridin-3-yl)benzoic acid], the IC50 fell in the range of 0.1 to 1000 nM.

Regarding `Cc1noc(C)c1-c1cnc2c(c1)c(-c1ccc(C(=O)O)cc1OC(F)(F)F)cn2-c1ncccc1F` [P-0182, 4-(5-(3,5-dimethylisoxazol-4-yl)-1-(3-fluoropyridin-2-yl)-1H-pyrrolo[2,3-b]pyridin-3-yl)-3-(trifluoromethoxy)benzoic acid], the IC50 was 0.1 to 1000 nM.

In the case of `Cc1noc(C)c1-c1cnc2c(c1)c(-c1ccc(C(=O)O)cc1OC(F)(F)F)cn2-c1ncccc1Cl` [P-0183, 4-(1-(3-chloropyridin-2-yl)-5-(3,5-dimethylisoxazol-4-yl)-1H-pyrrolo[2,3-b]pyridin-3-yl)-3-(trifluoromethoxy)benzoic acid], the IC50 lay within 0.1 to 1000 nM.

With `CCOc1cc(C(=O)O)cc(OCC)c1-n1cc(-c2ccc(F)cc2)c2ncc(-c3c(C)noc3C)cc21` [P-0184, 4-(6-(3,5-dimethylisoxazol-4-yl)-3-(4-fluorophenyl)-1H-pyrrolo[3,2-b]pyridin-1-yl)-3,5-diethoxybenzoic acid], the IC50 was in the range of 0.1 to 1000 nM.

Turning to `CCOc1cc(C(=O)O)cc(OCC)c1-n1cc(-c2cccc(Cl)c2)c2ncc(-c3c(C)noc3C)cc21` [P-0185, 4-(3-(3-chlorophenyl)-6-(3,5-dimethylisoxazol-4-yl)-1H-pyrrolo[3,2-b]pyridin-1-yl)-3,5-diethoxybenzoic acid], the IC50 lay within 0.1 to 1000 nM.

Regarding `CCOc1cc(C(=O)O)cc(OCC)c1-n1cc(-c2ccc(F)cc2F)c2ncc(-c3c(C)noc3C)cc21` [P-0186, 4-(3-(2,4-difluorophenyl)-6-(3,5-dimethylisoxazol-4-yl)-1H-pyrrolo[3,2-b]pyridin-1-yl)-3,5-diethoxybenzoic acid], the IC50 is 0.1 to 1000 nM.

With `CCOc1cc(C(=O)O)cc(OCC)c1-n1cc(Cc2ccccn2)c2ncc(-c3c(C)noc3C)cc21` [P-0187, 4-(6-(3,5-dimethylisoxazol-4-yl)-3-(pyridin-2-ylmethyl)-1H-pyrrolo[3,2-b]pyridin-1-yl)-3,5-diethoxybenzoic acid], the IC50 was in the range of 0.1 to 1000 nM.

For the compound `Cc1noc(C)c1-c1cnc2c(c1)c(-c1ccc(C(=O)O)cc1OC(F)(F)F)cn2-c1ccccc1` [P-0188, 4-(5-(3,5-dimethylisoxazol-4-yl)-1-phenyl-1H-pyrrolo[2,3-b]pyridin-3-yl)-3-(trifluoromethoxy)benzoic acid], the IC50 was in the range of 0.1 to 1000 nM.

Take `Cc1ccncc1-n1cc(-c2ccc(C(=O)O)cc2OC(F)(F)F)c2cc(-c3c(C)noc3C)cnc21` [P-0189, 4-(5-(3,5-dimethylisoxazol-4-yl)-1-(4-methylpyridin-3-yl)-1H-pyrrolo[2,3-b]pyridin-3-yl)-3-(trifluoromethoxy)benzoic acid]: the IC50 is 0.1 to 1000 nM.

Consider `CCOc1cc(C(=O)O)cc(OCC)c1-n1cc(CC2CCC2)c2ncc(-c3c(C)nnn3C)cc21` [P-0190, 4-(3-(cyclobutylmethyl)-6-(1,4-dimethyl-1H-1,2,3-triazol-5-yl)-1H-pyrrolo[3,2-b]pyridin-1-yl)-3,5-diethoxybenzoic acid], for which the IC50 lay within 0.1 to 1000 nM.

On to `Cc1noc(C)c1-c1cnc2c(c1)c(-c1ccc(C(=O)O)cc1OC(F)(F)F)cn2CCN1CCOCC1` [P-0191, 4-(5-(3,5-dimethylisoxazol-4-yl)-1-(2-morpholinoethyl)-1H-pyrrolo[2,3-b]pyridin-3-yl)-3-(trifluoromethoxy)benzoic acid], for which the IC50 was in the range of 0.1 to 1000 nM.

Values taken from patent publication US11446287B2, “Compounds and methods for EP300 or CBP modulation and indications therefor” (Opna Immuno-Oncology SA, priority 2019, dated 2022).
